Tests used:
[1] = tested on: ADAM10; assay: Hydrolysis of the ADAM10 substrate in urine samples, increase in fluorescence; format: biochemical, human; details: control urine samples Z1-Z10 (healthy subjects); 20 μL of 45 μM substrate, buffer pH 9.0, 37° C., 30 minutes, triplicate
Procedure: (§1) 20 μL of a 45 μM substrate solution of the peptide of the invention or its labelled derivative were mixed with 100 μL of the measurement buffer (25 mM Tris-Cl, 2.5 μM ZnCl2 and 0.005% Brij-35, pH 9.0) and 80 μL of test urine from a patient diagnosed with diabetes or a healthy person (control).
(§2) When fluorescently labelled derivatives were used, measurements were carried out in triplicate in a 96-well plate using a CLARIOStar plate reader (BMG Labtech, Ortenberg, Germany) at 37° C. for 30 minutes. After this time, the measurement was finished and the increase in fluorescence was determined. If a fluorescence increase of more than 0.0001 U/sec was obtained, the urine sample tested was considered to originate from a person with diabetes.

[2] = tested on: ADAM17; assay: Hydrolysis of the ADAM17 substrate in urine samples, increase in fluorescence; format: biochemical, human; details: control urine samples Z1-Z10 (healthy subjects); 20 μL of 45 μM substrate, buffer pH 9.0, 37° C., 30 minutes, triplicate
Procedure: as §1, §2

Row | Substance | Increase in concentration of labelled degradation products in the urine sample, Mean [1] | Increase in concentration of labelled degradation products in the urine sample, Mean [2]
1 | ABZ-Lys-Ile-Ile-Asn-Leu-Lys-Arg-Tyr(3-NO2)—NH2 | 0.000000 | 
2 | ABZ-Asn-Tyr-Met-Ala-Leu-Arg-Arg-Tyr(3-NO2)—NH2 |  | 0.000000

Reference: patent US20260235624A1, “PEPTIDES AND THEIR LABELLED DERIVATIVES SUITABLE FOR USE IN THE DIAGNOSIS OF DIABETES OR ITS COMPLICATIONS” (Instytut Medycyny Doswiadczalnej i Klinicznej im. Miroslawa …, priority 2023, published 2026)
